This note sets out measurements from PubChem BioAssay (NCI).

Common to all, as to experiment: NCI anticancer screen, dose series, 48 h
For assay [1], the system named is A498 renal.
The subject of assay [2] is HCT-116 colon.
Assay [3] concerns SNB-19 CNS.
In assay [4] the test system is SNB-78 CNS.
In assay [5] the test system is SW-620 colon.
For assay [6], the system named is UACC-257 melanoma.
For assay [7], the system named is UACC-62 melanoma.
In assay [8] the test system is UO-31 renal.
In assay [9] the test system is NCI-H226 lung.
The test system of assay [10] is RXF 393 renal.

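Growth conditions: 96-well plates. Treatment: test compound, 48 hours, 5 concentrations. Analysis: linear interpolation between bracketing concentrations; unreached endpoints set to highest concentration. Abbreviation: GI50, concentration required for 50% inhibition of growth. TGI is the concentration that stops growth completely.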

As for `O=C(c1ccncc1)n1nc(-c2ccccc2)c(N=Nc2ccccc2[N+](=O)[O-])c1-c1ccccc1`, the TGI in [1], in assay [2], in assay [3], in assay [4], in assay [5] and in assay [6] was more than 100 µM each time. Further, the TGI in [7] was more than 100 µM; in [8], 79.9 µM.
Regarding `CC[O-].CC[O-].O=S(=O)([O-])c1ccc([O-])c2ncccc12.O=S(=O)([O-])c1ccc([O-])c2ncccc12.[Ti+4]`, the GI50 in assay [1] is more than 100 µM; in assay [2], 41.1 µM; in assay [9], more than 100 µM; in assay [3], 58.3 µM; in assay [4] it was more than 100 µM; in assay [5], more than 100 µM. In addition, the GI50 in assay [6] was 43.7 µM; in assay [7], 66.2 µM; in assay [8], 74.4 µM. In addition, the TGI in assay [1], in assay [2], in assay [9], in assay [3], in assay [4] and in assay [5] was more than 100 µM throughout. For the same molecule, the TGI in assay [6], in assay [7] and in assay [8] was more than 100 µM in each case.
As to `C/C(=N\N(c1ccccc1)c1ccccc1)c1c(O)cc(C)oc1=O`, the TGI in assay [1], in assay [2], in assay [9], in assay [3], in assay [4] and in assay [5] was more than 100 µM throughout. Further, the TGI in assay [6], in [7] and in assay [8] was more than 100 µM each time.
For `CCOP(=O)(OCC)OC(C#N)c1ccc(-c2ccccc2)cc1` (stereo unspecified), the TGI in assay [1] was 62.7 µM; in assay [2] it was 28.5 µM; in assay [9] it was more than 100 µM; in assay [3], more than 100 µM; in assay [4], more than 100 µM; in [5], 26.8 µM. Besides, the TGI in assay [6] is 36.8 µM; in [7] it was 29.2 µM; in assay [8], more than 100 µM.
Consider `CCCCN(CCCC)c1c([N+](=O)[O-])c(=O)nc2ccccn12`, for which the TGI in assay [1] is 48.2 µM; in [2] it was more than 100 µM; in assay [9] it was more than 100 µM; in [3], more than 100 µM; in assay [4] it was more than 100 µM; in [5] it was more than 100 µM. Also, the TGI in assay [7] was more than 100 µM; in [8], 94 µM.
Turning to `CCOC(=O)c1cc(/C=C/C(C)=C/C(=O)OC)oc1C`, the TGI in assay [2], in assay [3], in assay [4], in assay [5], in assay [6] and in assay [7] was more than 100 µM throughout. The molecule further yielded a TGI in assay [8] of more than 100 µM.
For `CC(C)c1cccc(C(C)C)c1NC(=O)/C(CC(=O)CC(c1ccccc1)c1c(O)c2ccccc2oc1=O)=N/O` (stereo unspecified), the TGI in assay [1], in assay [2], in [9], in [10], in assay [3] and in [5] was more than 100 µM throughout. Further, the TGI in [6], in assay [7] and in [8] was more than 100 µM each time.
Regarding `Nc1ccc(C(=O)CC(N)C(=O)O)cc1O` (stereo unspecified), the TGI in [1], in assay [2], in [9], in assay [10], in assay [3] and in assay [5] was more than 100 µM throughout. The TGI in assay [6], in [7] and in [8] was more than 100 µM each time.
Take `NC(=O)c1cc2c3ccccc3ccn2c1-c1ccccc1`: the GI50 in assay [1] is 0.0468 µM; in assay [2], 0.0428 µM; in assay [9] it was 0.627 µM; in [10], 0.0462 µM; in assay [3], 0.0727 µM; in [5], 0.0357 µM. In addition, the GI50 in assay [6] was 11.5 µM; in assay [7] it was 0.0385 µM; in assay [8] it was 0.708 µM. Further, the TGI in assay [1] turned out to be 7.42 µM; in assay [2] it was 4.22 µM; in assay [9] it was 25.7 µM; in assay [10] it was 2.26 µM; in assay [3], 22.1 µM; in [5], 25 µM. The TGI was 26.5 µM in assay [6], more than 41.7 µM in assay [7] and 26.3 µM in assay [8].
For `N.N.N.N.O=C([O-])C(Cl)Cl.O=C([O-])C(Cl)Cl.[Co+3].[O-][Cl+3]([O-])([O-])[O-]`, the GI50 in [1], in assay [2], in assay [3], in [4], in assay [5] and in assay [6] was more than 100 µM in each case. The GI50 in assay [7] and in assay [8] was more than 100 µM throughout. The TGI in [1], in assay [2], in assay [3], in assay [4], in assay [5] and in assay [6] was more than 100 µM throughout. The TGI in [7] and in assay [8] was more than 100 µM throughout.
